Measured values from patent US20220118036A1, “USE OF MORCHELLA ACTIVE SUBSTANCE” (GRAPE KING BIO LTD., priority 2020, published 2022).
Where “and” joins values, the source holds several entries; their conditions need not be identical. Identical values can stand only once.

System: mouse skeletal muscle cells C2C12
Assay: Dexamethasone-induced muscle atrophy of differentiated C2C12 myotubes (myotube width, H&E staining)
Assay type: cell-based
Conditions: 1 μM Dexamethasone alone, 24 hours, mean±SD, n = 60, control 30.39 ± 4.52
Description: Currently, there have been experiments using Dexamethasone to induce muscle atrophy in mouse skeletal muscle cell C2C12. […] This paper uses a synthetic glucocorticoid-Dexamethasone to induce differentiated C2C12 atrophy as a model of muscle atrophy for sarcopenia study, in which the severity of muscle atrophy is measured according to the observation of morphology and diameter of the myotubes. According to such a method, in this experiment, the differentiated mouse skeletal muscle cell C2C12 is stained with H&E (hematoxylin and eosin) to assess the effect of the Morchella mycelium active substance in muscle atrophy. The experimental method is as follows:
(1) After the mouse skeletal muscle cells C2C12 was collected and the cell suspension concentration was adjusted, the cells were plated in a 6-well plate at a cell density of 1×10^5-2×10^5 with the cell growth medium (DMEM, 10% Fetal Bovine Serum).
(2) The 6-well plate of (1) was placed in a 5% CO2 incubator at 37° C. for two days and then observed under a microscope. […]
(5) Each test was repeated 3 times, and the numerical value was expressed as mean±SD (standard deviation). The statistical method used paired t-test to analyze the percentages of each item, and the significant difference was determined when the p-value was less than 0.05.

C[C@@H]1C[C@H]2[C@@H]3CCC4=CC(=O)C=C[C@]4(C)[C@@]3(F)[C@@H](O)C[C@]2(C)[C@@]1(O)C(=O)CO [Dexamethasone]
myotube diameter: 19.98 μm and 19.98 ± 6.42 μm
